How the values were obtained:
Assay type in all cases: cell-based, Aspergillus niger
[1] = test system: agsA promoter; test: PagsA-AmdS reporter strain growth on acetamide plates; conditions: 0.5 mg/ml CFW added to the plates
Text: Aspergillus niger grows poorly on acetamide as a nitrogen source. When additional copies of the amdS gene, encoding a acetamidase of A. nidulans are introduced, A. niger can grown on acetamide plates and the amdS gene can therefore be used as a selectable marker (Kelly and Hynes, 1985). The coding region of the amdS gene was fused to the agsA promoter sequence. Both the relatively low basal expression of the agsA gene and the high level of induction after CFW stress (over 20-fold) makes the agsA promoter a good candidate for use as a reporter. The reporter construct further comprises the amdS gene (A. nidulans) with its own terminator. For targeting to the pyrG locus of the A. niger strain AB4.1 (pyrG^−) the pyrG* gene is included in the construct (cf. Van Gorcum et al., 1988). […]
The construct was transformed to strain AB4.1 (a pyrG negative strain derived from N402) and transformants were selected on the presence of an intact pyrG gene. Wild type strain N402 and purified transformants (ABRD1.1-1.25 and ABRD2.1-2.15) were analysed were grown on acetamide and acrylamide plates. […] The majority of the transformants were analysed by Southern blotting to confirm correct integration of the construct.

[2] = test system: fksA; test: Northern blot analysis of fksA expression in CFW stressed germlings; conditions: in the presence of CFW (200 μg/ml)
Protocol: (§1) To identify genes that are induced upon cell wall stress, we have first investigated which cell wall perturbing compound was suited for this purpose. Finally, we used the antifungal compound Calcofluor White (CFW) to induce cell wall stress. […] Because of the defects in cell wall assembly, the cell wall is weakened en swells from internal pressure. Polarized growth is resumed after 2-4 hours. Both the effect of hyphal tip swelling and the time that is required to resume growth are dependent on the concentration of CFW (FIG. 3). To identify genes that are induced upon CFW treatment, mRNA has been isolated from germling that have been treated with or without CFW for various time intervals. […] These germlings were than treated with 200 μg/ml CFW. After 1, 2 and 4 hours after addition of CFW total RNA was isolated and used in Northern blot experiments (see FIG. 4). As a control, total RNA was isolated from germlings that were not treated with CFW. Several probes encoding putative proteins involved in cell wall biosynthesis have been analysed and quantified.
(§2) The highest induction was found for agsA. Thus, these genes are regulated by the promoter sequences as a response to the induced cell wall stress. Such promoters are suitable candidates for use as reporters. […] No signal could be detected for the other ags homologs.

[3] = test system: gfaA; test: Northern blot analysis of gfaA expression in CFW stressed germlings; conditions: germlings treated with 200 μg/ml CFW; RNA 1, 2 and 4 hours after addition; vs untreated germlings
Protocol: as §1, §2

[4] = test system: germinated spores of A. niger; test: Effect of CFW addition on growth of germlings
Protocol: FIG. 3: Effect of CFW addition on growth of germlings. Germinated spores of A. niger were treated with increasing concentrations of CFW. Both the extend of hyphal tip swelling and the time required to resume growth is dependent on the concentration of CFW.
as §1

Question: Which results are given for `O=S(=O)(O)c1cc(Nc2nc(Nc3ccccc3)nc(N(CCO)CCO)n2)ccc1/C=C/c1ccc(Nc2nc(Nc3ccccc3)nc(N(CCO)CCO)n2)cc1S(=O)(=O)O` [CFW, Calcofluor White]?
Answer: growth of PagsA-AmdS transformants on acetamide plates [1]: resulted in growth (and sporulation) for the majority of the transformants; expression level of fksA [2]: not significantly altered; increase in gfaA mRNA level [3]: 4 fold; time until polarized growth is resumed ([4]; after CFW treatment, dependent on CFW concentration): 2 to 4 h; hyphal morphology of germinating spores ([4]; treatment of germinating spores with CFW, concentration dependent): formation of swollen hyphe

Reference: patent publication US20060088902A1, “Methods and materials for the identification of antifungal substrates in filamentous fungi” (priority 2001, published 2006)
